Data published in ChEMBL document CHEMBL1201862, “PubChem BioAssay data set” (2004).
Where “and” joins values, the source holds several entries; their conditions need not be identical. Equal values may be shown once. Calls of active or inactive are those of the source.

Legend:
Cytochrome P450 1A2 = biological target: T1, Cytochrome P450 1A2 (Homo sapiens, UniProt P05177);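 further: PubChem cytochrome P450 panel assay, CYP1A2 panel member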
T1 sequence (P05177 whole entry): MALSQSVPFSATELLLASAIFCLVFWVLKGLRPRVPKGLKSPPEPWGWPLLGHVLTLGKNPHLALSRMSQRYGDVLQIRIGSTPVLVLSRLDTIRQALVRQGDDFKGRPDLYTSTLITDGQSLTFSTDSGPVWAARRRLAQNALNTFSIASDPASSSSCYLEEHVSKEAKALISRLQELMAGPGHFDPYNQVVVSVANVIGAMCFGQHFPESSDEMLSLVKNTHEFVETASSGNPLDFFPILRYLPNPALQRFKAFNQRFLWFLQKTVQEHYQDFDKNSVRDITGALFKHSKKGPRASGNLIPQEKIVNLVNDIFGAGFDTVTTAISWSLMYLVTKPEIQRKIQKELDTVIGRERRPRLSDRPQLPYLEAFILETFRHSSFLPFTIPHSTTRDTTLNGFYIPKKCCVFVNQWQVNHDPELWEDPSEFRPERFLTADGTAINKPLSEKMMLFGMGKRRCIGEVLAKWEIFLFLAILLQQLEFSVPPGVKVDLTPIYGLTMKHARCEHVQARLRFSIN

Mu-type opioid receptor = Mu-type opioid receptor (Homo sapiens, UniProt P35372); assay: (§1) Counterscreen for agonists of heterodimerization of the mu 1 (OPRM1) and delta 1 (OPRD1) opioid receptors: Luminescence-based cell-based high throughput dose response assay to identify agonists of OPRM1 homodimerization.; type: functional
Mu-type opioid receptor, sequence (P35372 whole entry): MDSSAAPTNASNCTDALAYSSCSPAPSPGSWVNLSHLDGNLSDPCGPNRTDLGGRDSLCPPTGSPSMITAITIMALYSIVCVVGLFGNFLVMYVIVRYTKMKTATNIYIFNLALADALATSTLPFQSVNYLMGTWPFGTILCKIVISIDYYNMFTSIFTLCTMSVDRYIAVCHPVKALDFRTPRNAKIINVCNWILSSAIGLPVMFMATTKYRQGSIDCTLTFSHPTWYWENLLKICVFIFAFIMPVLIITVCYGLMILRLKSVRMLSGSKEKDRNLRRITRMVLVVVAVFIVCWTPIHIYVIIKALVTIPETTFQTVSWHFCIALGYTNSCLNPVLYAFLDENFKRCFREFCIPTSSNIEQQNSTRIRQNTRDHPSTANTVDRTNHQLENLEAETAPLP

[1] = biological target: 5-hydroxytryptamine receptor 5A (Homo sapiens, UniProt P47898); assay: Counterscreen for agonists of OPRM1-OPRD1 heterodimerization: luminescence-based cell-based high throughput dose response assay to identify agonists of 5-hydroxytryptamine (serotonin) 5A receptor (HTR5A). [Related pubchem assays (depositor defined):AID504326, AID504355, AID504692, AID504904, AID504905]; type: functional
5-hydroxytryptamine receptor 5A, sequence (P47898 whole entry): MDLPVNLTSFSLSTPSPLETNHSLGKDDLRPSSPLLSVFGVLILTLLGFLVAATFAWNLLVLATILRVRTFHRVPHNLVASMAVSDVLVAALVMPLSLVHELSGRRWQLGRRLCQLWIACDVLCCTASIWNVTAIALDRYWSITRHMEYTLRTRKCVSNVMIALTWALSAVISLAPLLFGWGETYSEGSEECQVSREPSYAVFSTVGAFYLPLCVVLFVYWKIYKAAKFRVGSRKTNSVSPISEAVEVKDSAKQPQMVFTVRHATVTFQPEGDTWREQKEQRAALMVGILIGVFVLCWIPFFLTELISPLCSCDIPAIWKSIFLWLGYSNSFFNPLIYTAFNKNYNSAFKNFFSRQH

[2] = biological target: T2, Short transient receptor potential channel 4 (Mus musculus, UniProt Q9QUQ5); assay: mouse TRPC4 channel activators, dose response, cell-based, HEK293 TRPC4/mu-opioid, Fluo-4 calcium (AID 434937); type: functional
T2 sequence (Q9QUQ5 whole entry): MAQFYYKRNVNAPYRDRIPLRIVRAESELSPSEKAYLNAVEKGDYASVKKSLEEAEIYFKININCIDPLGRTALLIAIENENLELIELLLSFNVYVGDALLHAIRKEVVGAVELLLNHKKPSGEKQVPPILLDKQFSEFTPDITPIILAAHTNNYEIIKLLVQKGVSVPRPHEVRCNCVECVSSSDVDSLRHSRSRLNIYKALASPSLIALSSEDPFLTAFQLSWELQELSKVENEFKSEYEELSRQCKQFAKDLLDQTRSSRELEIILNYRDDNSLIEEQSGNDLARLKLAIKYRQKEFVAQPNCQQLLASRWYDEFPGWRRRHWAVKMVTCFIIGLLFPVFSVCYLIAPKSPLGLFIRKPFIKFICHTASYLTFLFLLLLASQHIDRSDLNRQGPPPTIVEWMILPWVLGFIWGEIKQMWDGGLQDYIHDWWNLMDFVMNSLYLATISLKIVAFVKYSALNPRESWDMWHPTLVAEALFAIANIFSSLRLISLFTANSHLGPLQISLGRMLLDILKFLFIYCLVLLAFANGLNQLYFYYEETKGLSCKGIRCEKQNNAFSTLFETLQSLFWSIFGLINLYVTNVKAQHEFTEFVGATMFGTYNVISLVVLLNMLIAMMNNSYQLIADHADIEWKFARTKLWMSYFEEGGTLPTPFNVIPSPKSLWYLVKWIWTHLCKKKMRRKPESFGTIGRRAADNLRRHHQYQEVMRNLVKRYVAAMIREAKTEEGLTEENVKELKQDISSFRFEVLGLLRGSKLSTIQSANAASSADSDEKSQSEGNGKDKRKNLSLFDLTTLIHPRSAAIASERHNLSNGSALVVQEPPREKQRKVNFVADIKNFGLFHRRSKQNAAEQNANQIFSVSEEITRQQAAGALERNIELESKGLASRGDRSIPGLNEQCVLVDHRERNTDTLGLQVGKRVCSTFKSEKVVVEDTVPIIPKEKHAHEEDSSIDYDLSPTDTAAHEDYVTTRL

[3] = biological target: Delta-type opioid receptor (Homo sapiens, UniProt P41143); assay: as §1, with “of OPRD1” for “of OPRM1”, “homodimerization. [Related pubchem assays (depositor defined):AID504326, AID504355, AID504692, AID504904, AID504905]” for “homodimerization.”; type: functional
Delta-type opioid receptor, sequence (P41143 whole entry): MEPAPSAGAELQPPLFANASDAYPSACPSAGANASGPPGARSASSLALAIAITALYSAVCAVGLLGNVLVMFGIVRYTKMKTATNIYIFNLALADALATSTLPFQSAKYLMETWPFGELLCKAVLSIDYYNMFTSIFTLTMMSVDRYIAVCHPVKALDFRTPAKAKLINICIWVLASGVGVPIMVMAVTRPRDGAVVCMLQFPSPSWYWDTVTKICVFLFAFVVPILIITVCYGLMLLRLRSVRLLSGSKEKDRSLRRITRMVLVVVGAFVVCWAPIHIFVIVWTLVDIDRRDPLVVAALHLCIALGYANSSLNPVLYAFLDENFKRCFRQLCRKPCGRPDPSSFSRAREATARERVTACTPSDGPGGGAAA

cells [4] = type: functional, cell-based
[5] = biological target: T3, Beta-adrenergic receptor kinase 1 (Homo sapiens, UniProt P25098); assay: GRK2 inhibitors displacing RNA aptamer, dose response, biochemical, flow cytometry beads, FAM-aptamer, powder set 1 (AID 588720)
T3 sequence (P25098 whole entry): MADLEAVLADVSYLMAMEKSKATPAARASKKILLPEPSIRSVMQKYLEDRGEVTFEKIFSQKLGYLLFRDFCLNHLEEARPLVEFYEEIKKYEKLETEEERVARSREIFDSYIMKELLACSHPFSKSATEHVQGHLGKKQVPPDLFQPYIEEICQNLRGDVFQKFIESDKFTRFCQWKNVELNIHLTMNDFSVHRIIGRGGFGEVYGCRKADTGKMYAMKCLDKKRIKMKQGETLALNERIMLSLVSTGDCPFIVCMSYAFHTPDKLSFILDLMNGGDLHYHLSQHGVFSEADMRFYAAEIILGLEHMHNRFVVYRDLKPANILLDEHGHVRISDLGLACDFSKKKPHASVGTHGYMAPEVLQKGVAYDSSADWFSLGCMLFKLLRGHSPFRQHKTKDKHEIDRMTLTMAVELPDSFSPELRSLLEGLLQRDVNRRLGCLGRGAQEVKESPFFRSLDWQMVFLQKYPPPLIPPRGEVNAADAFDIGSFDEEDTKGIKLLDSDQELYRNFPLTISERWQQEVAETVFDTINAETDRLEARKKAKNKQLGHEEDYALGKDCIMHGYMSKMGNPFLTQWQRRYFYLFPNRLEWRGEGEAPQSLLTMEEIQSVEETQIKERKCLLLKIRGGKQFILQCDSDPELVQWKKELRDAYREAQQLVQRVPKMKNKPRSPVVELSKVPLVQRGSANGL

[6] = biological target: T4, Carboxy-terminal domain RNA polymerase II polypeptide A small phosphatase 1 (Homo sapiens, UniProt Q9GZU7); assay: inhibitors of CTDSP1, concentration-response testing, biochemical assay, absorbance-based, actives from ultra-high-throughput screening (AID 540297); type: functional
T4 sequence (Q9GZU7 whole entry): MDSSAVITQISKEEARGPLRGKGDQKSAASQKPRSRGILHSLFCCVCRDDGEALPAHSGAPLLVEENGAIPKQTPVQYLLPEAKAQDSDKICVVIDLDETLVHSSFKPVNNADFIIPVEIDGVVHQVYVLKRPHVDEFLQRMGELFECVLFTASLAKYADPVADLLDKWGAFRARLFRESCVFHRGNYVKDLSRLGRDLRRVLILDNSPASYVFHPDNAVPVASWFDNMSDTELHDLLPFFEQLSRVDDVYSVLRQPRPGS

cells [7] = type: functional, cell-based; remark: listed apart in the source
[8] = biological target: T3, Beta-adrenergic receptor kinase 1; assay: aptamer displacement from bead-bound GRK2 – biochemical, cherry pick 1, bead flow cytometry, dose response (AID 504500)
Phosphomannomutase 2 = Phosphomannomutase 2 (Homo sapiens, UniProt O15305); assay: Counter screen SAR assay for PMM2 inhibitors via a fluorescence intensity assay. [Related pubchem assays (depositor defined):AID1545, AID1574]
Phosphomannomutase 2, sequence (O15305 whole entry): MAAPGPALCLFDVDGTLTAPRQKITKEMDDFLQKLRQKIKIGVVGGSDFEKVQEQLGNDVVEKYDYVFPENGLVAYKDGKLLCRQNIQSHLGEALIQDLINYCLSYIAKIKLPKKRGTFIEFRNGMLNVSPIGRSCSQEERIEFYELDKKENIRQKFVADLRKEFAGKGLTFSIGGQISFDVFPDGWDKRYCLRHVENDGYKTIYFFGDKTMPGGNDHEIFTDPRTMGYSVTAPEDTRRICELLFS

[9] = biological target: T5, Mannose-6-phosphate isomerase (Homo sapiens, UniProt P34949); assay: PMI enzyme inhibitors, confirmation, biochemical, fluorescence intensity (AID 1535)
T5 sequence (P34949 whole entry): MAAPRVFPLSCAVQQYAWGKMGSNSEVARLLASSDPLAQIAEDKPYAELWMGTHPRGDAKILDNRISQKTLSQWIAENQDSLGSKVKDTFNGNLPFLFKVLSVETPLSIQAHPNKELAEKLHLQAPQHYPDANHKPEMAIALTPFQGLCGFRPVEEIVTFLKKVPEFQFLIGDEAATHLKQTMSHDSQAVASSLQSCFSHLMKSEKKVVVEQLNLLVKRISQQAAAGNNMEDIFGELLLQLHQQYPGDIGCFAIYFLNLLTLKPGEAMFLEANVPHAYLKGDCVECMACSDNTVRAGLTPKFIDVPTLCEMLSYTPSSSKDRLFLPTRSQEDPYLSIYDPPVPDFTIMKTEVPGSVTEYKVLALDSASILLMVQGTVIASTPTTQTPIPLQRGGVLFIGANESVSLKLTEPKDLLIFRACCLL

With `CC(C)CN1CC2(CCN(C(=O)c3csnn3)CC2)C1` the AC50 (Cytochrome P450 1A2) was “inactive”.

In the case of `COc1ccc(C(CNC(=O)CCc2ccsc2)N(C)C)cc1` (configuration not stated), the EC50 (Mu-type opioid receptor) is reported as 1.42 µM (active), the EC50 [1] is reported as > 92.4 µM (inactive) and the EC50 [2] is reported as 0.0147 µM (active). The EC50 [3] was 25.6 µM (inactive).

In the case of `O=C(CSc1nc2ccccc2c(=O)n1-c1ccccc1)NC(=O)CN1CCCC1=O`, the EC50 (cells [4]) is reported as > 350 µM (not active), the EC50 [5] is reported as 2.96 µM (active) and the IC50 [6] is reported as 8.75 µM (active). For the same compound, the EC50 (cells [7]) was > 350 µM (not active) and the EC50 [8] was 9.42 µM (active).

In the case of `Clc1nss/c1=N\c1nncs1`, the IC50 (Phosphomannomutase 2) is reported as > 100 µM (inactive) and the IC50 [9] is reported as 3.1 µM (active) and 2.3 µM (active).
